Experimental data published in US10131653B2, “Heterocyclic compound” (TAKEDA PHARMACEUTICAL COMPANY LIMITED, priority 2015, dated 2018).

How the values were obtained:
[1] = Measurement of solubility; format: physicochemical; settings: aqueous buffer, thermodynamic from solid; Britton-Robinson's Buffer pH 3, 37° C., shaking 2 hr; crystals from n-heptane suspension
Procedure: n-Heptane was added to the compounds of Examples 1, 2 and 102 at 40 mg/mL, respectively, and the mixtures were continued to be stirred at room temperature in a suspended state. After 3 to 7 days, the mixtures were filtered, and the obtained crystals as a sample were subjected to powder X-ray diffraction measurement (measurement condition: mentioned above) and solubility measurement.

[2] = test system: Orexin-A-induced rats; experiment: Locomotor activity test using Orexin-A-induced rats; format: in vivo; settings: rat
Procedure: The male SD rats described in Experimental Example 2 were used.
From the day before drug administration, the animals were acclimated to a locomotor activity measurement apparatus (Muromachi Kikai Co., Ltd.). Solvent (0.5% (w/v) methyl cellulose solution) and the compound (30 mg/kg) of Example 1 or the compound (30 mg/kg) of Example 2 were subcutaneously administered 30 min before administration of saline or Orexin-A (1 nmol). The locomotor activity was quantified for 30 min to 90 min after the cerebral ventricular administration of Orexin-A. A comparison with saline+solvent administration group was tested by Student's t-test (*p≤0.05). A comparison with Orexin-A+solvent administration group was tested by Dunnett's test (#p≤0.05).

[3] = molecular target: T1, human OX2 receptor (Homo sapiens, UniProt O43614); experiment: Measurement of orexin receptor antagonistic activity (calcium fluorescence, FLIPRtetra); format: cell-based; settings: CHO, 10 μM test compound; CHO cells expressing human OX2 receptor; OX-A 0.3 nM; read-out: Human Orexin2 receptor inhibition (at 10 μM)
T1 construct: expressed in transfected cells; host or cells: CHO cells
T1 sequence (O43614 1-444): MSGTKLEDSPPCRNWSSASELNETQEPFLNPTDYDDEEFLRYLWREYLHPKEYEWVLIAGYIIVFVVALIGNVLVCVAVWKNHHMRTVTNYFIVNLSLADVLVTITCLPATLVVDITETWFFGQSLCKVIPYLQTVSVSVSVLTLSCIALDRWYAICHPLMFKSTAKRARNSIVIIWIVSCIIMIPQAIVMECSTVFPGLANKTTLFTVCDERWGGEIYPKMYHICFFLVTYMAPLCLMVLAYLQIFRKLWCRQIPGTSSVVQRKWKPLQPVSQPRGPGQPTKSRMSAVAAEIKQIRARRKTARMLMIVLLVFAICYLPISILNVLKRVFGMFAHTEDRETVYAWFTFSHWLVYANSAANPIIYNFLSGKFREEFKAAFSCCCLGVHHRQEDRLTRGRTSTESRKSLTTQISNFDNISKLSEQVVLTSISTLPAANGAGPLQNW
Outline: (§1)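 Calcium fluorescence measured by FLIPRtetra every second for 2 min after orexin-A challenge, 1 nM final for OX1 and 0.3 nM final for OX2. Receptor-expressing CHO cells received compound in HEPES-buffered HBSS with 0.1% BSA just before agonist.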

[4] = molecular target: T2, human OX1 receptor (Homo sapiens, UniProt O43613); experiment: as above; format: cell-based; settings: 10 μM test compound, CHO cells expressing human OX1 receptor, OX-A 1 nM
T2 construct: expressed in transfected cells; host or cells: CHO cells
T2 sequence (O43613 1-425): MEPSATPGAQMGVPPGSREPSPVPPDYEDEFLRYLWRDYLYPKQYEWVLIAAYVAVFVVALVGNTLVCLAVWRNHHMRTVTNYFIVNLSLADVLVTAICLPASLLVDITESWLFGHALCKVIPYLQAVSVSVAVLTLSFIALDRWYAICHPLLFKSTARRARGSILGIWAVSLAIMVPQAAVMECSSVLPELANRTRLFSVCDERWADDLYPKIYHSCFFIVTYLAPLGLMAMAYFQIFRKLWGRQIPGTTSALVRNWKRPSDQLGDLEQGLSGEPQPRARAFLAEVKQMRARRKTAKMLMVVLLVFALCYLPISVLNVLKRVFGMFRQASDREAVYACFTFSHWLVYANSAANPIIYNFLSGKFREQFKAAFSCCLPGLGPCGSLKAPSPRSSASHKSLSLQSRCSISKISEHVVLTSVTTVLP
Outline: as §1

[5] = test system: Male SD rats; experiment: Effect on sleep in rat (brain wave measurement); format: in vivo
Procedure: Male SD rats were purchased from Charles River Laboratories Japan, Inc. They were used for an experiment after an acclimation period of at least one week after carrying them in the animal experimental facility. They were bred in the animal experimental facility with environment in which 12-hours light-dark cycle was performed, humidity and temperature were controlled, and free water drinking and feeding were allowed.
Electrodes for brain wave measurement were implanted in rat cortex, muscle electrodes were implanted in rat cervical muscle, and a transmitter was implanted under rat back skin. Rats in which chronic electrodes were implanted were fully acclimated to a box for brain wave measurement, and then the brain wave measurement was performed. The brain wave data was obtained using Dataquest ART manufactured by Data Sciences International. For analysis, wakefulness, non-REM sleep and REM sleep were automatically determined using Sleep Sign which is a program for sleep analysis study by KISSEI COMTEC Co., Ltd. The compound of Example 102 was subcutaneously administered at a dose of 3 mg/kg immediately before beginning of dark period. The sum of non-REM sleep and REM sleep 1 hr after the administration was regarded as total sleep. All data were shown as the mean+standard error. For statistical analysis, variance analysis to crossover was performed (*p ?0.05).

| solubility at 2 h [1] | inhibition at 10 µM [3] | inhibition at 10 µM ([4]; CHO, read-out: Human Orexin1 receptor inhibition (at 10 μM)) | Human Orexin1 receptor inhibition (at 10 μM) [4] | SMILES | Locomotor activity increased by cerebral ventricular administration of Orexin-A ([2]; 30 mg/kg subcutaneous) | Locomotor activity (Counts/90 min) ([2]; 30 mg/kg subcutaneous 30 min before Orexin-A (1 nmol) cerebral ventricular administration, mean) | Total sleep compared with solvent control group ([5]; 3 mg/kg subcutaneous) | Total sleep ([5]; 3 mg/kg subcutaneous immediately before dark period, sum of non-REM and REM sleep 1 hr after administration, mean) |
| --- | --- | --- | --- | --- | --- | --- | --- | --- |
| ≥ 5000 µg/mL | 101% | 68% | – | Cc1cc(N2CCN(C(=O)c3ccccc3-n3nccn3)C[C@H](C)O2)nc(C)n1 [Example 2, ((7S)-2-(2,6-dimethylpyrimidin-4-yl)-7-methyl-1,2,5-oxadiazepan-5-yl)(2-(2H-1,2,3-triazol-2-yl)phenyl)methanone] | significantly decreased | 2638 Counts/90 min | – | – |
| ≥ 5000 µg/mL | 101% | – | 94% | Cc1cc(N2CCN(C(=O)c3cc(Cl)ccc3-n3nccn3)C[C@H](C)O2)nc(C)n1 [Example 102, (5-chloro-2-(2H-1,2,3-triazol-2-yl)phenyl)((7S)-2-(2,6-dimethylpyrimidin-4-yl)-7-methyl-1,2,5-oxadiazepan-5-yl)methanone] | – | – | significantly increased | 33.51 min |
